What was measured:
[1] = system: Colletotrichum lagenarium; details: 200 ppm spray on cucumber (3 leaf stage), inoculated next day; lesion numbers on first and second leaves after 7 days in green house, graded by Table 5
Pyricularia oryzae = type: in vivo; details: 200 ppm spray on rice (Koshihikari, 3 leaf stage), inoculated next day; lesion numbers on third leaves after 7 days in green house, graded by Table 5

| SMILES | Evaluation (effect for cucumber anthracnose) [1] | Evaluation (effect for rice blast) (Pyricularia oryzae) |
| --- | --- | --- |
| CCC(CC)c1cc(CNC(=O)c2ccc(OC)cc2)on1 [III-230, N-{[3-(1-ethylpropyl)-5-isoxazolyl]methyl}-4-methoxybenzamide] | 5 (0) | 5 (0) |
| COc1ccc(C(=O)NCc2cc(-c3ccccc3Cl)no2)cc1 [III-231, N-{[3-(2-chlorophenyl)-5-isoxazolyl]methyl}-4-methoxybenzamide] | 5 (0) | 5 (0) |
| COc1ccc(C(=O)NCc2cc(-c3nc(-c4ccccc4)no3)no2)cc1 [III-232, N-{[3-(3-phenyl-1,2,4-oxadiazol-5-yl)-5-isoxazolyl]methyl]-4-methoxybenzamide] | 2 (11˜20) | 3 (6˜10) |
| CCCCc1cc(CNC(=O)c2ccc(OC)cc2)on1 [III-235, N-[(3-butyl-5-isoxazolyl)methyl]-4-methoxybenzamide] | 4 (1˜5) | 4 (1˜5) |
| CCC(C)c1cc(CNC(=O)c2ccc(OC)cc2)on1 (stereo not drawn) [III-236, N-[(3-sec-butyl-5-isoxazolyl)methyl]-4-methoxybenzamide] | 4 (1˜5) | 4 (1˜5) |
| COc1ccc(C(=O)NCc2cc(C(C)(C)C)no2)cc1 [III-237, N-[(3-tert-butyl-5-isoxazolyl)methyl]-4-methoxybenzamide] | 3 (6˜10) | 3 (6˜10) |
| COc1ccc(C(=O)NCc2cc(C3CCCCC3)no2)cc1 [III-238, N-[(3-cyclohexyl-5-isoxazolyl)methyl]-4-methoxybenzamide] | 5 (0) | 4 (1˜5) |
| Cc1ccc(-c2cc(CNC(=O)c3cc(Cl)nc(Cl)c3)on2)cc1 [III-240, N-{[3-(4-tolyl)-5-isoxazolyl]methyl}-2,6-dichloropyridine-4-carboxamide] | 2 (11˜20) | 2 (11˜20) |
| CC(C)c1cc(CNC(=O)c2cc(Cl)nc(Cl)c2)on1 [III-243, N-[(3-isopropyl-5-isoxazolyl)methyl]-2,6-dichloropyridine-4-carboxamide] | 1 (21˜41) | 2 (11˜20) |
| CCCc1cc(CNC(=O)c2ccc(OC)cc2)on1 [III-245, N-[(3-propyl-5-isoxazolyl)methyl]-4-methoxybenzamide] | 5 (0) | 5 (0) |
| CCCC(C)c1cc(CNC(=O)c2ccc(OC)cc2)on1 (stereo not drawn) [III-246, N-[(3-sec-pentyl-5-isoxazolyl)methyl]-4-methoxybenzamide] | 3 (6˜10) | 3 (6˜10) |
| COc1ccc(C(=O)NCc2cc(-c3ccc(C)o3)no2)cc1 [III-247, N-{[3-(2-methylfuran-5-yl)-5-isoxazolyl]methyl}-4-methoxybenzamide] | 5 (0) | 5 (0) |
| CCCCCC#Cc1cc(CNC(=O)c2ccc(OC)cc2)on1 [III-248, N-{[3-(1-heptynyl)-5-isoxazolyl]methyl}-4-methoxybenzamide] | 2 (11˜20) | 3 (6˜10) |
| COc1ccc(C(=O)NCc2cc(C(OC)OC)no2)cc1 [III-249, N-[(3-dimethoxymethyl-5-isoxazolyl)methyl]-4-methoxybenzamide] | 2 (11˜20) | 2 (11˜20) |
| COc1ccc(C(=O)NCc2cc(ON=C(C)C)no2)cc1 [III-250, N-[(3-isopropyliminoxy-5-isoxazolyl)methyl]-4-methoxybenzamide] | 2 (11˜20) | 2 (11˜20) |
| Cc1ccc(C(=O)NCc2cc(CC(C)C)no2)cc1 [III-251, N-[(3-isobutyl-5-isoxazolyl)methyl]-4-methylbenzamide] | 5 (0) | 5 (0) |
| CC(C)Cc1cc(CNC(=O)c2ccc(Cl)cc2)on1 [III-252, N-[(3-isobutyl-5-isoxazolyl)methyl]-4-chlorobenzamide] | 5 (0) | 5 (0) |
| CC(C)Cc1cc(CNC(=O)c2ccc(Cl)cc2Cl)on1 [III-253, N-[(3-isobutyl-5-isoxazolyl)methyl]-2,4-dichlorobenzamide] | 5 (0) | 5 (0) |

| SMILES | Evaluation (effect for cucumber anthracnose) [1] | Evaluation (effect for rice blast) (Pyricularia oryzae) |
| --- | --- | --- |
| CC(C)Cc1cc(CNC(=O)c2ccc(Cl)c(Cl)c2)on1 [III-255, N-[(3-isobutyl-5-isoxazolyl)methyl]-3,4-dichlorobenzamide] | 4 (1˜5) | 4 (1˜5) |
| CC(C)Cc1cc(CNC(=O)c2ccc(Br)cc2)on1 [III-256, N-[(3-isobutyl-5-isoxazolyl)methyl]-4-bromobenzamide] | 5 (0) | 5 (0) |
| CC(C)Cc1cc(CNC(=O)c2ccc(C(F)(F)F)cc2)on1 [III-257, N-[(3-isobutyl-5-isoxazolyl)methyl]-4-trifluoromethylbenzamide] | 4 (1˜5) | 3 (6˜10) |
| CCc1ccc(C(=O)NCc2cc(CC(C)C)no2)cc1 [III-258, N-[(3-isobutyl-5-isoxazolyl)methyl]-4-ethylbenzamide] | 4 (1˜5) | 5 (0) |
| CC(C)Cc1cc(CNC(=O)c2ccc3ccccc3c2)on1 [III-259, N-[(3-isobutyl-5-isoxazolyl)methyl]-2-naphthalenecarboxamide] | 4 (1˜5) | 5 (0) |
| CC(C)Cc1cc(CNC(=O)c2cccc3ccccc23)on1 [III-262, N-[(3-isobutyl-5-isoxazolyl)methyl]-1-naphthalenecarboxamide] | 5 (0) | 5 (0) |
| CCCc1cc(CNC(=O)c2ccc(Cl)cc2)on1 [III-263, N-[(3-propyl-5-isoxazolyl)methyl]-4-chlorobenzamide] | 5 (0) | 5 (0) |
| CCCc1cc(CNC(=O)c2ccc(Br)cc2)on1 [III-264, N-[(3-propyl-5-isoxazolyl)methyl]-4-bromobenzamide] | 5 (0) | 5 (0) |
| CCCc1cc(CNC(=O)c2ccc(Cl)cc2Cl)on1 [III-265, N-[(3-propyl-5-isoxazolyl)methyl]-2,4-dichlorobenzamide] | 4 (1˜5) | 5 (0) |
| O=C(NCc1cc(CBr)no1)c1ccc(Cl)cc1Cl [III-275, N-[(3-bromomethyl-5-isoxazolyl)methyl]-2,4-dichlorobenzamide] | 2 (11˜20) | 2 (11˜20) |
| O=C(NCc1cc(Cc2ccccc2)no1)c1ccccc1 [IV-1, N-[(3-benzyl-5-isoxazolyl)methyl]benzamide] | 5 (0) | 5 (0) |
| COc1ccc(C(=O)NCc2cc(Cc3ccccc3)no2)cc1 [IV-2, N-[(3-benzyl-5-isoxazolyl)methyl]-4-methoxybenzamide] | 5 (0) | 5 (0) |
| Cc1ccc(C(=O)NCc2cc(Cc3ccccc3)no2)cc1 [IV-3, N-[(3-benzyl-5-isoxazolyl)methyl]-4-methylbenzamide] | 5 (0) | 5 (0) |
| O=C(NCc1cc(Cc2ccccc2)no1)C1CCCCC1 [IV-4, (3-benzyl-5-isoxazolyl)methylaminocarbonylcyclohexane] | 4 (1˜5) | 4 (1˜5) |
| COc1ccc(Cc2cc(CNC(=O)c3ccc(OC)cc3)on2)cc1 [IV-9, N-{[3-(4-methoxybenzyl)-5-isoxazolyl]methyl}-4-methoxybenzamide] | 5 (0) | 5 (0) |
| Cc1ccc(Cc2cc(CNC(=O)c3ccc(C)cc3)on2)cc1 [IV-10, N-{[3-(4-methylbenzyl)-5-isoxazolyl]methyl}-4-methylbenzamide] | 5 (0) | 5 (0) |
| Cc1ccc(C(=O)NCc2cc(Cc3cccc(C)c3)no2)cc1 [IV-11, N-{[3-(3-methylbenzyl)-5-isoxazolyl]methyl}-4-methylbenzamide] | 5 (0) | 5 (0) |
| Cc1ccc(C(=O)NCc2cc(Cc3ccccc3C)no2)cc1 [IV-12, N-{[3-(2-methylbenzyl)-5-isoxazolyl]methyl}-4-methyl benzamide] | 5 (0) | 5 (0) |

Source: patent US20050171358A1 (priority 2002, published 2005)
